Experimental data taken from patent US9820987B2, “Modulator compounds of drug resistance in epithelial tumor cells” (BIONSIL S.R.L. in Liquidazione, priority 2007, dated 2017).
Like-named read-outs stand apart in the source and are kept apart here.

Key:
[1] = system: SKOV cells (ovarian tumor); test: Cell death with or without BTK inhibition by LFM-A13; type: cell-based, human; conditions: 200 μM 5FU, 50 μM OxPt, or the combination of the two
Excerpt: (§1) The diminution of the resistance to chemotherapeutic drugs following the functional blocking of the gene BTK by means of LFM-A13 was further confirmed by tests conducted in vitro on epithelial tumor cell lines different from those of the colon. In FIG. 11 levels of BTK have been investigated, by means of Western blot, in several different epithelial carcinoma cell lines showing that the kinase is expressed in most of them. In particular, in FIGS. 12a and 12b, graphs were reported of the reversion tests obtained on SKOV cell lines (related to an ovarian tumor) and A549 cell lines (related to a lung tumor).
(§2) In detail, FIG. 12a compares the percentages of cell deaths in the absence (symbol “NT” and “−”) and presence of 200 μM 5FU, 50 μM OxPt, and the combination of the two upon resistant ovarian (SKOV) cells with or without BTK inhibition through the usage of LMFA13. […] FIG. 12b compares the percentages of cell deaths in the absence (symbol “NT” and “−”) and presence of 200 μM 5FU, 50 μM OxPt, and the combination of the two upon resistant lung (A549) cells with or without BTK inhibition through the usage of LMFA13.

A549 cells (lung tumor) = test: as above; type: cell-based, human; conditions: 200 μM 5FU, 50 μM OxPt, or the combination of the two
Excerpt: as §1, §2

HCT116p53KO cells [2] = test: Reversion of 5FU resistance by functional blocking of BTK (cell death); type: cell-based, human; conditions: 200 μM 5FU, 72 hr; agents compared with each other
Excerpt: FIG. 8 is a graph illustrating the reversion of the resistance to a chemotherapeutic drug of tumor cell line HCT116p53KO carried out by means of functional blocking of the gene BTK obtained with different methods.
In FIG. 8, the results of the comparison test are reported in a graph of the functional blocking of the BTK gene by means of plasmids (e.g., encoding p68BTK), siRNA or LFM-A13 in samples of HCT116p53KO cells treated with 5FU. […] In detail, FIG. 8 compares the percentages of cell deaths in the presence of 200 μM 5FU (72 hr treatment) upon wt HCT116 cells and HCT116p53KO drug resistant cells with or without (symbol “empty” and “−”) specific depletions of BTK following transient siRNA transfection (symbol “BTKi”), stable retroviral-mediated RNA interference (symbol “shBTK”), and using LFMA13, an inhibitor compound of BTK.

HCT116p53KO cells [3] = test: Caspase 3/7 activation assay; type: cell-based, human; conditions: 5FU-treated cells in the presence of LFM-A13; luminometric assay
Excerpt: FIG. 14 is a graph illustrating the results of […] caspase activation assays after 72 hrs and 96 hrs in HCT116 and HCT116p53KO colon carcinoma cells treated with 5FU, BTK inhibition, or the combination of the two.
The results have shown that BTK levels determine the sensitivity of tumor cells to 5FU and that BTK inhibition reverses drug-resistance. […] The same finding is also supported by the graph reported in FIG. 14, evaluating the level of caspase 3/7 activation upon 5FU treatment in HCT116p53KO resistant cells in the presence or in the absence of BTK inhibitor LFM-A13. High levels of caspase 3/7 activation, measured by means of a luminometric assay as RLU/number of cells, are observed in 5FU-treated HCT116p53KO cells only when BTK is inhibited.

HCT116p53KO cells [4] = test: Short-term viability under targeted therapy with or without ibrutinib (MTT); type: cell-based, human; conditions: 25 μg/ml bevacizumab, 10 μg/ml cetuximab or 75 μg/ml panitumumab alone, 72 hr
HCT116 xenografts = test: Subcutaneous xenograft, drug-sensitive tumors; conditions: for average volume of the tumor masses: after 28 days, alone or combined, control ≈435; for increase of the tumor doubling time / reduction in the tumor volume: 5FU versus untreated or ibrutinib-treated group p<0.05
[5] = system: 5FU-resistant, p53-null (HCT116p53KO, SW480 and HT-29) cell lines; test: Calcein cell viability assay, ibrutinib dose range; type: cell-based, human; conditions: highest concentration (range 0 to 30 μM), 72 hours
Excerpt: (§3) 100% represent the percentage of living cells at day 0, before starting the treatment.

HCT116p53KO cells [6] = test: Calcein cell viability assay, ibrutinib with or without 5FU; type: cell-based, human; conditions: 72 hr; for percentage of live HCT116p53KO cells (100% = living cells at day 0): without ibrutinib 177.5%
Description: as §3
(§4) Viability was evaluated after 72 hr of incubation by calcein assay. 100% represent the percentage of living cells at day 0, before starting treatment with the drugs. […] At the end of the treatment, cell viability was evaluated by calcein assay. 100% represent the percentage of living cells at day 0, before starting treatment with the drugs.

HCT116p53KO xenografts = test: Subcutaneous xenograft, drug-resistant tumors; conditions: for average volume of the tumor masses: after 28 days, 5FU 60 mg/kg i.p. twice a week, alone or combined, control ≈955
[7] = system: HCT116p53KO, SW480, DLD-1 and HCT116 cell lines; conditions: up to 10 μM, 72 hours
HCT116 cells [8] = conditions: 200 μM 5FU, 72 hr
Description: as §3, §4

[9] = system: HCT116p53KO, DLD-1 and SW480 cell lines; test: cells; conditions: Homo sapiens, 72 h, read-out: cell mortality
Description: The tumor cell line initially used was HCT116p53KO (which differs from the wild type (wt) HCT116 due to the lack of gene p53), related to the colon tumor, while further detailed studies of specific genes were carried out on other drug-resistant tumor cell lines of the colon, such as DLD-1 and SW480, as well as on tumor cell lines of the lung and ovary. In particular, all cell lines that were the object of the analysis, were related to tumors of epithelial type.

HCT116 cells [10] = conditions: 72 hr
HCT116p53KO cells [11] = conditions: 200 μM 5FU, 20 μM ibrutinib, singly or combined, 72 hr
[12] = system: HCT116 overexpressing p65BTK (HCT116-p65BTK); conditions: 200 μM 5FU, 72 hr
Description: as §4

[13] = system: tumor cells of the colon-rectum in advanced phase; conditions: therapy based on 5FU; cited from earlier work
wt HCT116 cells = test: cells; conditions: Homo sapiens, HCT-116, 72 h, read-out: cell mortality
HT-29 colon cancer cells = conditions: with 200 μM 5FU, 72 hr
Description: Cells were treated for 72 hrs in absence of any drug or in presence of FU 200 μM; 1 μM AVL-292; 1 μM AVL-292+5FU 200 μM; 5 μM AVL-292; 5 μM AVL-292+5FU 200 μM; 10 μM AVL-292; […]; viability was evaluated at the end of the incubation using the calcein assay. FIG. 26a: SW480; FIG. 26b: HT-29.
In the experiments shown in FIG. 26 SW480 and HT-29 colon carcinoma cell lines were grown in vitro for 72 hr in the presence of different concentrations of AVL-292, a small molecule inhibitor of BTK, (Celgene Corporation, Summit, N.J.) (from 0 to 20 μM) and of 5FU (200 μM)+AVL-292 (from 0 to 20 μM); cell viability was evaluated at the end of the incubation using the calcein assay. 100% represent the percentage of living cells at day 0, before starting treatment with the drugs.

SW480 colon cancer cells = conditions: 72 hr
Description: FIG. 26a: SW480; FIG. 26b: HT-29.
as §4
100% represent the percentage of living cells at day 0, before starting treatment with the drugs.

[14] = ibrutinib 25 mpk oral gavage once daily 5 days a week
[15] = 5FU 60 mg/kg ± dasatinib 50 mpk, p<0.05
[16] = dasatinib 50 mpk oral gavage once a day 5 days a week

Compound: C/C(O)=C(\C#N)C(=O)Nc1cc(Br)ccc1Br [LFM-A13, (2Z)-2-cyan-N-(2,5-dibromophenyl)-3-hydroxy-2-butenamide]
- percentage of cell deaths with LFM-A13 compared to without [1]: high percentage of tumor cell death
- percentage of cell deaths with LFM-A13 compared to without (A549 cells (lung tumor)): high percentage of tumor cell death
- level of reversion to the drug resistance, expressed as percentage fraction of dead cells (HCT116p53KO cells [2]): comparable
- caspase 3/7 activation (HCT116p53KO cells [3]): High levels

Compound: panitumumab: monoclonal antibody used in anti-cancer therapy for targeting EGFR
- cell viability (HCT116p53KO cells [4]): does not affect

Compound: C=CC(=O)N1CCC[C@@H](n2nc(-c3ccc(Oc4ccccc4)cc3)c3c(N)ncnc32)C1 [ibrutinib]
- average volume of the tumor masses (HCT116 xenografts; 5FU 60 mpk, ibrutinib 25 mpk): ≈ 347 mm^3
- average volume of the tumor masses (HCT116 xenografts; 5FU 60 mpk, ibrutinib 50 mpk): ≈ 372 mm^3
- number of cells (100% = living cells at day 0) [5]: below 100%
- percentage of live HCT116p53KO cells (100% = living cells at day 0) (HCT116p53KO cells [6]; 10 μM ibrutinib): 130.2%
- percentage of live HCT116p53KO cells (100% = living cells at day 0) (HCT116p53KO cells [6]; 20 μM ibrutinib): 116.1%
- average volume of the tumor masses (HCT116p53KO xenografts; [14]): ≈ 760 mm^3
- cytotoxicity [7]: not cytotoxic

Compound: O=c1[nH]cc(F)c(=O)[nH]1 [5FU, 5-fluorouracil]
- increase of the tumor doubling time versus untreated (or dasatinib-treated) group (HCT116 xenografts; [15]): significant
- reduction in the tumor volume versus untreated (or dasatinib-treated) group (HCT116 xenografts; [15]): significant
- increase of the tumor doubling time (HCT116 xenografts; 5FU 60 mpk, ibrutinib 25 mpk): significant
- reduction in the tumor volume (HCT116 xenografts; 5FU 60 mpk, ibrutinib 25 mpk): significant
- increase of the tumor doubling time (HCT116 xenografts; 5FU 60 mpk, ibrutinib 50 mpk): significant
- reduction in the tumor volume (HCT116 xenografts; 5FU 60 mpk, ibrutinib 50 mpk): significant
- average volume of the tumor masses (HCT116 xenografts; 5FU 60 mg/kg, dasatinib 50 mpk): 226 mm^3
- average volume of the tumor masses (HCT116 xenografts; 5FU 60 mpk, ibrutinib 25 mpk): ≈ 226 mm^3
- average volume of the tumor masses (HCT116 xenografts; 5FU 60 mpk, ibrutinib 50 mpk): ≈ 226 mm^3
- response to the cytotoxic effect of 5FU (HCT116 cells [8]): sensitive
- mortality at 200 µM [9]: < 10%
- effect on viability (HCT116p53KO cells [6]; 5FU 200 μM alone): little effect
- cell death (photographs) (HCT116 cells [10]; 10 μM 5FU, 10 μM ibrutinib, singularly or in combination): no cell death
- cell death (photographs) (HCT116 cells [10]; 5FU 200 μM): massive cell death
- reduction of the tumor volume (significance) (HCT116p53KO xenografts; 5FU 60 mpk, ibrutinib 25 mpk, 5FU+Ibr25 Vs. Ctrl p=0.012, Vs. Ibr25 p=0.039): did not cause a significant reduction
- average volume of the tumor masses (HCT116p53KO xenografts; [16]): ≈ 530 mm^3
- average volume of the tumor masses (HCT116p53KO xenografts; [14]): ≈ 530 mm^3
- cell death (photographs) (HCT116p53KO cells [11]): no cell death
- response to the cytotoxic effect of 5FU [12]: resistant
- effective response (share of the cells) [13]: 10-15%
- mortality at 200 µM (wt HCT116 cells): > 95%

Compound: C=CC(=O)Nc1cccc(Nc2nc(Nc3ccc(OCCOC)cc3)ncc2F)c1 [AVL-292]
- AVL-292 concentration from which sensitization to the cytotoxic effect of 5FU starts (HT-29 colon cancer cells): ≥ 20 µM
- cell death (SW480 colon cancer cells; 5 μM combined with 200 μM 5FU): 66.8%
- cell death (SW480 colon cancer cells; 10 μM alone): 19.9%
- cell death (SW480 colon cancer cells; 20 μM alone): 65.3%

Compound: Cc1nc(Nc2ncc(C(=O)Nc3c(C)cccc3Cl)s2)cc(N2CCN(CCO)CC2)n1 [dasatinib]
- average volume of the tumor masses (HCT116 xenografts; 5FU 60 mg/kg, dasatinib 50 mpk): ≈ 343 mm^3
- average volume of the tumor masses (HCT116p53KO xenografts; [16]): ≈ 355 mm^3

Compound: bevacizumab: monoclonal antibody used in anti-cancer therapy for targeting VEGF
- cell viability (HCT116p53KO cells [4]): does not affect
